42 compounds from patent US9485989B2, “Method of controlling neonicotinoid resistant hemiptera” (Syngenta Participations AG, priority 2010, dated 2016) can be followed below.

What is called melting point is the temperature, or range, at which the solid turns liquid. Usually mortality stands for the share of the test organisms that died.

Test system in the first data set: not given
Experiment: not given
Details: not given
Take `CCOC(=O)OC1=C(c2cc(C)ccc2C)C(=O)N(C)C12CCN(OC)CC2` [P1.1]: the melting point lay within 96 to 110 °C.

Compound `CCOC(=O)OC1=C(c2c(C)cc(C)cc2C)C(=O)N(CC)C12CCN(OC)CC2` [P1.8] gave a melting point of 101 to 103 °C. On the same count and under the same terms, the same measure for `CCOC(=O)OC1=C(c2cc(C)c(C)cc2Br)C(=O)N(C)C12CCN(OC)CC2` [P1.20]: 158 to 159 °C. In turn, `CCOC(=O)OC1=C(c2cc(C)c(C)cc2Cl)C(=O)N(C)C12CCN(OC)CC2` [P1.22] yielded a melting point of 149 to 150 °C. Same read-out and setting: the same measure for `COCON1C(=O)C(c2cc(C)ccc2C)=C(OC(=O)CC(C)(C)C)C12CCN(OC)CC2` [P1ii.5]: 93 to 95 °C; for `COCON1C(=O)C(c2cc(C)ccc2C)=C(OC)C12CCN(OC)CC2` [P1ii.31]: 91 to 93 °C; for `CCOC(=O)OC1=C(c2c(Cl)ccc(C)c2F)C(=O)N(OC2CCCC2)C12CCN(OC)CC2` [P1ii.43]: 135 to 137 °C.

For the compound `CCOC(=O)OC1=C(c2c(F)ccc(C)c2Cl)C(=O)N(OCOC)C12CCN(OC)CC2` [P1ii.61], the melting point lay within 116 to 119 °C. On the same count and under the same terms, the same measure for `CCOC(=O)OC1=C(c2c(C)cc(Cl)cc2C)C(=O)N(OC)C12CCN(OC)CC2` [P1ii.114]: 122 to 125 °C; for `CON1CCC2(CC1)C(O)=C(c1cc(C)ccc1C)C(=O)N2C` [P2.1]: 121 to 123 °C. The compound `CON1CCC2(CC1)C(O)=C(c1c(C)cc(C)cc1C)C(=O)N2CC1CC1` [P2.8, 1-Cyclopropylmethyl-4-hydroxy-8-methoxy-3-(2,4,6-trimethyl-phenyl)-1,8-diaza-spiro[4.5]dec-3-en-2-one] gave a melting point of 223 to 225 °C. Regarding `CCN1C(=O)C(c2c(C)cc(C)cc2C)=C(O)C12CCN(OC)CC2` [P2.11], the melting point was 218 to 221 °C. On the same count and under the same terms, then `CON1CCC2(CC1)C(O)=C(c1cc(C)c(C)cc1Br)C(=O)N2C` [P2.23], with 191 to 193 °C; and `CON1CCC2(CC1)C(O)=C(c1cc(C)c(C)cc1C)C(=O)N2C` [P2.25], with 183 to 186 °C; and `CON1CCC2(CC1)C(O)=C(c1cc(C)c(C)cc1Cl)C(=O)N2C` [P2.26, 3-(2-Chloro-4,5-dimethyl-phenyl)-4-hydroxy-8-methoxy-1-methyl-1,8-diaza-spiro[4.5]dec-3-en-2-one], with 191 to 192 °C.

Compound `CON1CCC2(CC1)C(O)=C(c1cc(Br)c(C)cc1C)C(=O)N2C` [P2.28] had a melting point of 182 to 183 °C. Still for that read-out and setting: then `COCON1C(=O)C(c2c(C)cc(-c3ccc(Cl)cc3)cc2C)=C(O)C12CCN(OC)CC2` [P2ii.15, 3-(4′-Chloro-3,5-dimethyl-biphenyl-4-yl)-4-hydroxy-8-methoxy-1-methoxymethoxy-1,8-diaza-spiro[4.5]dec-3-en-2-one], with 128 °C (dec.).

Regarding `CON1CCC2(CC1)C(O)=C(c1c(C)cc(C)cc1C)C(=O)N2OCCOC1CCCCO1` (stereo not shown) [P2ii.22], the melting point was 135 to 137 °C. On the same count and under the same terms, then `COCON1C(=O)C(c2c(F)ccc(C)c2Cl)=C(O)C12CCN(OC)CC2` [P2ii.60], with 155 to 158 °C.

`COCCON1C(=O)C(c2cc(Br)c(C)cc2C)=C(O)C12CCN(OC)CC2` [P2ii.73] registered a melting point of 63 to 64 °C. The same measure, in the same setting: the same measure for `CON1CCC2(CC1)C(O)=C(c1cc(Br)c(C)cc1C)C(=O)N2OC` [P2ii.75]: 86 to 87 °C; for `COCCON1C(=O)C(c2cc(Br)c(F)cc2C)=C(O)C12CCN(OC)CC2` [P2ii.87]: 71 to 74 °C; for `COCON1C(=O)C(c2cc(Br)c(F)cc2C)=C(O)C12CCN(OC)CC2` [P2ii.89]: 64 to 67 °C.

In the case of `CON1CCC2(CC1)C(O)=C(c1c(C)cc(C)cc1C)C(=O)N2OCC1CCCCC1` [P2ii.96], the melting point lay within 169 to 172 °C. Still for that read-out and setting: the same measure for `COCCON1C(=O)C(c2c(C)cc(Cl)cc2C)=C(O)C12CCN(OC)CC2` [P2ii.101]: 161 to 164 °C. Same read-out and setting: the same measure for `CON1CCC2(CC1)C(O)=C(c1c(C)cc(Cl)cc1C)C(=O)N2OC` [P2ii.102]: 88 to 92 °C. Still for that read-out and setting: the same measure for `COCON1C(=O)C(c2c(C)cc(Cl)cc2C)=C(O)C12CCN(OC)CC2` [P2ii.104]: 176 to 178 °C; for `CON1CCC2(CC1)C(O)=C(c1c(C)cc(Cl)cc1C)C(=O)N2OC1CCCO1` (stereo not shown) [P2ii.105]: 137 to 139 °C.

A further data set deals with Myzus Persicae (Green Peach Aphid). Briefly: Example B1: Myzus persicae mixed population, feeding/residual contact activity, preventive (sunflower leaf discs). It is filed as in vivo. To be noted: foliar, 144 h, A: neonicotinoid insecticides susceptible Myzus persicae (mixed age population), 6 DAT, read-out: Mortality (A). As for the experimental part: Myzus Persicae (Green Peach Aphid): Mixed Population, Feeding/Residual Contact Activity, Preventive
Sunflower leaf discs are placed on agar in a 24-well microtiter plate and sprayed with test solutions. After drying, the leaf discs are infested with an aphid population of mixed ages. After an incubation period of 6 DAT, samples are checked for mortality.
For `CCOC(=O)OC1=C(c2c(C)cc(C)cc2C)C(=O)N(C)C12CCN(OC)CC2` [P1.2, Carbonic acid ethyl ester 8-methoxy-1-methyl-2-oxo-3-(2,4,6-trimethyl-phenyl)-1,8-diaza-spiro[4.5]dec-3-en-4-yl ester], the mortality at 200 ppm was 95%.

Staying with this data set, now noted: foliar, 144 h, B: neonicotinoid insecticides resistant Myzus persicae (mixed age population), 6 DAT, read-out: Mortality (B).
In the case of `CCOC(=O)OC1=C(c2c(C)cc(C)cc2C)C(=O)N(C)C12CCN(OC)CC2` [P1.2, Carbonic acid ethyl ester 8-methoxy-1-methyl-2-oxo-3-(2,4,6-trimethyl-phenyl)-1,8-diaza-spiro[4.5]dec-3-en-4-yl ester], the mortality at 200 ppm stood at 90%.

For a further data set, the system named is FRC-P strain of Myzus persicae (Neonicotinoid resistant). Nature of the data set: Example B2a: Myzus persicae mixed population, contact activity, curative on pea seedlings, resistant strain. Particulars: Lowest concentration giving greater than 80% mortality of resistant (FRC-P) aphids / same for susceptible aphids; Myzus persicae on pea seedlings, spray, 6 days after treatment. The format is in vivo. The text has this:
(§1) The level of resistance and therefore the impact on the performance of the insecticide can be measured by the use of a ‘Resistance Factor’. The resistance factor can be calculated by dividing the concentration of an insecticide that provides a set level of mortality (i.e. 80%) for the ‘resistant’ strain with the concentration of the same insecticide that provides the same level of mortality for the ‘susceptible’ insect of the same species and life-stage. Although there are no set rules, a low value (1-10) indicates no cross-resistance and only natural levels of variation and a high value (50+) provides strong evidence of cross-resistance.
a) Neonicotinoid and Pyrethroid Resistant Strain of the Green Peach Aphid (Myzus persicae)
Myzus persicae strains utilised: • Standard screening strain of Myzus persicae (Neonicotinoid susceptible) • FRC-P strain of Myzus persicae (Neonicotinoid resistant) Bioassay Method:
Myzus persicae: mixed population, contact activity, curative on pea seedlings
Pea seedlings, infested with an aphid population of mixed ages, are treated with the test solutions in a spray chamber. 6 days after treatment, samples are checked for mortality.
Regarding `CON1CCC2(CC1)NC(=O)C(c1c(C)cc(Cl)cc1C)C2=O` (stereo not shown), the “Resistance Factor (RF80)” value is on record as 1.

Regarding `CCOC(=O)OC1=C(c2c(C)cc(Cl)cc2C)C(=O)NC12CCN(OC)CC2`, the “Resistance Factor (RF80)” value was less than 1. Same read-out and setting: the same measure for `CON1CCC2(CC1)C(=O)C(c1c(C)cc(C)cc1C)C(=O)N2OC1CCCO1` (stereo not shown): less than 1.

For the compound `CCOC(=O)OC1=C(c2c(C)cc(C)cc2C)C(=O)NC12CCN(OC)CC2`, the “Resistance Factor (RF80)” value was 4.

`CON1CCC2(CC1)NC(=O)C(c1c(C)cc(C)cc1C)C2=O` (stereo not shown): the “Resistance Factor (RF80)” value is 4. Same read-out and setting: then `CCOC(=O)OC1=C(c2c(C)cc(C)cc2C)C(=O)N(OCC)C12CCN(OC)CC2` [drawing 468], with 4. Consider `CCOC(=O)OC1=C(c2c(C)cc(C)cc2C)C(=O)N(C)C12CCN(OC)CC2` [drawing 471], for which the “Resistance Factor (RF80)” value was determined as 1. Still for that read-out and setting: then `CN1COCN(Cc2cnc(Cl)s2)/C1=N\[N+](=O)[O-]` [thiamethoxam, reference compound], with more than 250.

The same data set, now with this note: neonicotinoid resistant FRC-P versus susceptible Myzus persicae; mortality 6 days after treatment.
Regarding `CN1COCN(Cc2cnc(Cl)s2)/C1=N\[N+](=O)[O-]` [thiamethoxam, reference compound], the “Resistance factor (RF)” value is “high”.

The next data set relates to IND3 strain of Nilaparvata lugens (Neonicotinoid resistant). Nature of the data set: Example B2b: Nilaparvata lugens larvicide, feeding/contact activity, preventive (rice seedlings), resistant strain. The format is in vivo. To be noted: Lowest concentration giving greater than 80% mortality of resistant (IND3) hoppers / same for susceptible hoppers; Nilaparvata lugens N3 nymphs on rice seedlings, 6 and 12 days after treatment.
Excerpt: as §1
b) Neonicotinoid Resistant Strain of the Brown Planthopper (Nilaparvata lugens)
Nilaparvata lugens strains utilised: • Standard screening strain of Nilaparvata lugens (Neonicotinoid susceptible) • IND3 strain of Nilaparvata lugens (Neonicotinoid resistant) Bioassay Method:
Nilaparvata lugens: larvicide, feeding/contact activity, preventive
Rice seedlings are treated with the diluted test solutions in a turn table spray chamber. After drying, they are infested with 20 N3 nymphs. 6 and 12 days after the treatment samples are checked for mortality, growth regulation, and effects on the F1 generation.
Consider `CCOC(=O)OC1=C(c2c(C)cc(Cl)cc2C)C(=O)N(C)C12CCN(OC)CC2`, for which the “Resistance Factor (RF80)” value stood at 4. Same read-out and setting: then `CON1CCC2(CC1)C(=O)C(c1c(C)cc(C)cc1C)C(=O)N2C` (stereo not shown), with 1; and `CCOC(=O)OC1=C(c2c(C)cc(C)cc2C)C(=O)N(OC2CCCO2)C12CCN(OC)CC2` (stereo not shown), with 1; and `CCOC(=O)OC1=C(c2c(C)cc(C)cc2C)C(=O)N(OCC)C12CCN(OC)CC2` [drawing 473], with less than 1.

Regarding `CN1COCN(Cc2cnc(Cl)s2)/C1=N\[N+](=O)[O-]` [thiamethoxam, reference compound], the “Resistance Factor (RF80)” value is more than 64.

The same data set, now with this note: neonicotinoid resistant IND3 versus susceptible Nilaparvata lugens.
For the compound `CN1COCN(Cc2cnc(Cl)s2)/C1=N\[N+](=O)[O-]` [thiamethoxam, reference compound], the “Resistance factor (RF)” value is listed as “high”.

For a further data set, the system named is ALM07 strain (Neonicotinoid and pyrethroid resistant) of the Tobacco Whitefly (Bemisia tabaci). Nature of the data set: Example B2c: Bemisia tabaci residual activity, preventive egg lay (cotton seedlings), resistant strain. It is filed as in vivo. Particulars: Concentration giving 50% control of resistant (ALM07) whitefly egg lay / same for susceptible whitefly; Bemisia tabaci on cotton seedlings, 3 days after exposure.
Excerpt: as §1
c) Neonicotinoid and Pyrethroid Resistant Strain of the Tobacco Whitefly (Bemisia tabaci)
Bemisia tabaci strains utilised: • Standard screening strain of Bemisia tabaci (Neonicotinoid susceptible) • ALM07 strain of […] (Neonicotinoid and pyrethroid resistant) and originally provided by Rothamsted Research, UK. (>250 RF in residual mortality bioassay of adult whitefly with thiamethoxam). Bioassay Method: […]
Cotton seedlings, with all but a single leaf removed are treated with the diluted test solutions in a turn table spray chamber. […] 3 days after exposure, the total number of adult whitefly and the total number of whitefly eggs laid on the leaf are counted. Percentage control of egg lay is calculated and corrected for control mortality.
In the case of `CCOC(=O)OC1=C(c2c(C)cc(C)cc2C)C(=O)N(C)C12CCN(OC)CC2` [drawing 476], the “Resistance Factor (RF50)” value is listed as 4.
